Source: EP0993454B1, “BENZO(5,6)CYCLOHEPTA(1,2B)PYRIDINE DERIVATIVES USEFUL FOR INHIBITION OF FARNESYL PROTEIN TRANSFERASE” (SCHERING CORPORATION, priority 1997, dated 1998)
pIC50: −log10 of the molar value.

Target: farnesyl protein transferase (Homo sapiens, UniProt P49354+P49356)
Experiment: FPT IC50 (inhibition of farnesyl protein transferase, in vitro enzyme assay)
Type: biochemical
Settings: procedure of WO 95/10516, one collective range stated for the five listed compounds
Experimental: FPT IC50 (inhibition of farnesyl protein transferase, in vitro enzyme assay) and COS Cell IC50 (Cell-Based Assay) were determined following the assay procedures described in WO 95/10516, published April 20, 1995. GGPT IC50 (inhibition of geranylgeranyl protein transferase, in vitro enzyme assay), Cell Mat Assay, and anti-tumor activity (in vivo anti-tumor studies) could be determined by the assay procedures described in WO 95/10516. The disclosure of WO 95/10516 is incorporated herein by reference thereto.

Compound | pIC50
O=C(CC1CCNCC1)N1CCC(C2(O)c3ncc(Br)cc3CCc3cc(Cl)cc(Br)c32)CC1 (centres unmarked) [2 Step A] | 7.38 to 8.70
NC(=O)CN1CCC(CC(=O)N2CCC(C3(O)c4ncc(Br)cc4CCc4cc(Cl)cc(Br)c43)CC2)CC1 (centres unmarked) [Example 3, 4-[2-[4-(3,10-dibromo-8-chloro-6,11-dihydro-11-hydroxy-5H-benzo[5,6]cyclohepta-[1,2-B]pyridin-11-yl)-1-piperidinyl]-2-oxoethyl]-1-piperidineacetamide] | 7.38 to 8.70
